Where two headings read alike, the source gives them in different places.
What was measured:
[1] = In vitro metabolite screening, rat liver microsomes; format: in vitro ADME; conditions: N=2
Procedure: [^14C]EC-18 or the positive control (7-ethoxycoumarin; 7-EC) reacted with microsomes prepared from hepatocytes of rats, dogs, monkeys, and humans, with or without cofactors, for 60 and 120 min. Then, the residual EC-18 concentration over time was measured by LC-RID ([^14C]EC-18) or LC-MS/MS (7-EC) (FIG. 63 and FIG. 64).
The LC-RID chromatographic profiles of radioactive metabolites produced in the 2-hr incubation reaction mixtures of the same test systems A, B, and C used to assess the metabolic and non-metabolic elimination rates of EC-18 were compared to the LC-UV chromatographic profiles of the synthetic reference material. […] The relative radioactivity of EC-18 accounted for 42-67% of total radioactivity. The peaks designated as M2, M3, and M5 were also determined in all species, and their relative radioactivity accounted for 12-34% of total radioactivity. The peaks of M4 and M6 were determined in monkeys and humans. M1 was abundantly detected in all species, but it was assumed to be a peak of early elution. The LC-UV chromatograms of reaction mixtures in each test system (FIGS. 65A-65C) and the relative radioactivity of the screened metabolites are shown in Table 25.

Balb/c mice, TBI 6.5 Gy = test: Survival in extreme LD100 TBI murine model (6.5 Gy); format: in vivo, mouse; conditions: for Survival: 250 mg/kg/day 16 days
Procedure: Animals were treated orally with phosphate-buffered saline or EC-18 at 250 mg/kg/day for 16 days.

Beagle dog = test: Single-dose toxicity, Beagle dog; format: in vivo; conditions: Oral, Days 1, 5, 9, 13
Text: Various toxicology studies have been performed. All studies were GLP-compliant unless otherwise noted.

[2] = system: mice, 5-FU + X-radiation 20 Gy on heads and necks; test: CRIOM (chemoradiation-induced oral mucositis) murine model; format: in vivo, mouse
Text: Radiation-Induced Coagulopathy is worsened in more severe syndromes including mucositis in the oral cavity and GI. As described above, exposure to radiation stimulates DAMP release and DAMP recognized by PRR results in an inflammatory response that causes apoptosis, mucosal atrophy, and ulceration. Specifically, TLR-4 has been identified as a major PRR, which plays a critical role in the pathogenesis of mucosal injury (Vasconcelos et al., 2016). To investigate the mitigating effect of EC-18 against CRIOM, different doses of EC-18 were administered to mice daily. CRIOM mouse model was established using concurrent treatments with 5-FU (100 mg/kg, i.p.) and X-radiation (20 Gy) on heads and necks of mice. PBS or EC-18 (100 and 250 mg/kg, p.o.) was administered daily (n=5 for each group). The body weights of mice were observed, and the mice were sacrificed on day 9.

CYP2C9 = molecular target: T1, CYP2C9 (Homo sapiens, UniProt P11712); test: CYP enzyme inhibition in human liver microsomes, CYP2C9; format: in vitro ADME
T1 construct: incubated with human liver microsomes; from tissue; host or cells: human liver microsomes
T1 sequence (P11712 whole entry): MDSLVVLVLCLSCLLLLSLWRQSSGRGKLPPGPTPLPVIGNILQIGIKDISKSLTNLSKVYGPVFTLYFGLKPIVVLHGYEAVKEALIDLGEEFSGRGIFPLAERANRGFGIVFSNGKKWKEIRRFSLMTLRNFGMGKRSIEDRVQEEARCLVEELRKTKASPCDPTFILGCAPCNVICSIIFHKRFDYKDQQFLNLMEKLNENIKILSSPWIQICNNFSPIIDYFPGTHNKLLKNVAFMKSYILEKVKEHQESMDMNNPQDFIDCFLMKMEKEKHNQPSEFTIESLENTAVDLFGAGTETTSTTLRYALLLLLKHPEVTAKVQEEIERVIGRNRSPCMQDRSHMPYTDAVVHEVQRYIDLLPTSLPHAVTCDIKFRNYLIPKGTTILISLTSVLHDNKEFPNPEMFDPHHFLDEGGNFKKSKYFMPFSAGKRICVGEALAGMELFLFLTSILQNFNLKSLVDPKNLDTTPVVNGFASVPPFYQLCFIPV

[3] = Plasma and lymphatic concentrations of EC-18 in beagle dogs after single administration; format: in vivo, dog; conditions: for Tmax / AUC(0-t) / half-life / Cmax: male, beagle, dog; for Tmax: po
Procedure: A single dose of EC-18 (1000, 2000, 4000 mg/kg by mouth or 100 mg/kg IV) was administered to male beagle dogs in fed condition and the concentration of EC-18 in plasma and lymph was measured using UHPLC-MS/MS.

OATP1B3 = molecular target: T2, OATP1B3 (Homo sapiens, UniProt Q9NPD5); test: Drug transporter inhibition, OATP1B3; format: in vitro ADME; conditions: 100 nM [3H] estradiol-17β-D-glucuronide; transfected HEK-293 cells
T2 construct: expressed in transfected cells; host or cells: HEK-293
T2 sequence (Q9NPD5 whole entry, species assumed): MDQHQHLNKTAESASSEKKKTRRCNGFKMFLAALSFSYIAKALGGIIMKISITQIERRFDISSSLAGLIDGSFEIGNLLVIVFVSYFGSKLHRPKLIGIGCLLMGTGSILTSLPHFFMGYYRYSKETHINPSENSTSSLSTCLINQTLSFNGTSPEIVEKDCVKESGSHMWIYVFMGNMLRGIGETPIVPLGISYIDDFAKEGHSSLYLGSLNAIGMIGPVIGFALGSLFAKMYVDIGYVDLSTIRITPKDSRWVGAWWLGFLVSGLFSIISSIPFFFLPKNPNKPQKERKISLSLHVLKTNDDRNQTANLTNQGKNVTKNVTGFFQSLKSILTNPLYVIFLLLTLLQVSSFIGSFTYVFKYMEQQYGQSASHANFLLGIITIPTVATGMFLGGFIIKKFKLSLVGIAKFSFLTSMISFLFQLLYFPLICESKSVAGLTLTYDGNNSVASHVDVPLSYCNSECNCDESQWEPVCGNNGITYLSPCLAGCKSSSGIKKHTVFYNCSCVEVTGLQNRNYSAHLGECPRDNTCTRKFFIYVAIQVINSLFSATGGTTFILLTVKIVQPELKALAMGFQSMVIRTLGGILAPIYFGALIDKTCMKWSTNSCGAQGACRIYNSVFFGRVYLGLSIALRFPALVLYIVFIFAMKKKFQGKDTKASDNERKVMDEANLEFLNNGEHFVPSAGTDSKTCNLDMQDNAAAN
Procedure: This study examined the potential of EC-18 to interact with the transporter proteins that have been known to be involved in the absorption of commercially available drugs. EC-18 was pre-incubated with HEK-293 cells and LLC-PK1 cells that were transfected with the genes of most drug transporters as follows: OATP1B1, OATP1B3, OAT1, OAT3 and OCT2, and BCRP and P-gp, respectively.

In the case of CCCCC/C=C\C/C=C\CCCCCCCC(=O)OC(COC(C)=O)COC(=O)CCCCCCCCCCCCCCC (stereo not shown) [EC-18, 1-palmitoyl-2-linoleoyl-3-acetylglycerol], the “Mean Peak Area in LC-RID” value ([1]; A (NADPH added), [14C]EC-18 2 hrs) is reported as 61.8%, the “Mean Peak Area in LC-RID” value ([1]; B (NADPH, PAPS, UDPGA added), 2 hrs) is reported as 51.9% and the “Mean Peak Area in LC-RID” value ([1]; C (no cofactor added), 2 hrs) is reported as 58.8%. The “signs of subcutaneous hemorrhage” value (Balb/c mice, TBI 6.5 Gy; 250 mg/kg/day) was “markedly improved”, the Survival (Balb/c mice, TBI 6.5 Gy; started 24-hr post-irradiation) was 65% and the Survival (Balb/c mice, TBI 6.5 Gy; started 48-hr post-irradiation) was 25%. For the same molecule, the Approximate lethal dose (Beagle dog) was “dose: >2000 mg/kg”, the mortality (Beagle dog; 0, 500, 1000, 1500, 2000 mg/kg) was “No dead animals” and the findings (Beagle dog; up to 2000 mg/kg) was “No specific findings”. The “thickness of the oral epithelium” value ([2]; ChemoRT + EC-18) was “protective effect”, the “DAMPs (HMGB1, HSP90) in serum” value ([2]; ChemoRT + EC-18 250 mg/kg) was “subsided levels of DAMPs” and the “MIP-2 and IL-6 in serum” value ([2]; ChemoRT + EC-18 250 mg/kg) was “substantially less systemic inflammation”. For the same molecule, the “expression level of CXCL2 and IL-6 mRNA in tongues” value ([2]; ChemoRT + EC-18 250 mg/kg) was “downregulated”, the “necroptotic signaling axis (RIPK1, RIPK3, MLKL phosphorylation) in tongues” value ([2]; ChemoRT + EC-18 250 mg/kg) was “significantly modulated” and the “neutrophils recruited at oral epithelium (IHC)” value ([2]; ChemoRT + EC-18 250 mg/kg) was “did not”. For the same molecule, the “OM score and rates of ulceration” value ([2]; ChemoRT + EC-18 100 and 250 mg/kg) was “statistically improvement of OM score and lower rates of ulceration dose-dependently”, the body weight ([2]; ChemoRT + EC-18 100 and 250 mg/kg p.o. daily) was “did not exhibit a significant weight loss” and the IC50 (CYP2C9) was 7.99 mM. The F ([3]; 1000 mg/kg po, Plasma) was 7.8%, the F ([3]; 2000 mg/kg po, Plasma) was 6.3% and the F ([3]; 4000 mg/kg po, Plasma) was 23.6%. The Tmax ([3]; lymph, 1000 mg/kg, 1000 mg/kg po, Lymph, read-out: Tmax) was 3.3 ± 0.9 h, the Tmax ([3]; lymph, 1000 mg/kg, 1000 mg/kg po, lymph, read-out: median Tmax) was 4 h and the Tmax ([3]; lymph, 2000 mg/kg, 2000 mg/kg po, Lymph, read-out: Tmax) was 3.3 ± 0.9 h. It also gave a Tmax ([3]; lymph, 2000 mg/kg, 2000 mg/kg po, lymph, read-out: median Tmax) of 4 h, a Tmax ([3]; lymph, 4000 mg/kg, 4000 mg/kg po, Lymph, read-out: Tmax) of 3.3 ± 1.9 h and a Tmax ([3]; lymph, 4000 mg/kg, 4000 mg/kg po, lymph, read-out: median Tmax) of 2 h. It also gave a Tmax ([3]; plasma, 1000 mg/kg, 1000 mg/kg po, Plasma, read-out: Tmax) of 1.3 h, a Tmax ([3]; plasma, 2000 mg/kg, 2000 mg/kg po, Plasma, read-out: Tmax) of 1.3 h and a Tmax ([3]; plasma, 4000 mg/kg, 4000 mg/kg po, Plasma, read-out: Tmax) of 6.7 h. It also gave an AUC(0-t) ([3]; 100 mg/kg IV, Plasma) of 7540 ± 1860 ng·h/mL, a half-life ([3]; 100 mg/kg IV, Plasma) of 13.9 ± 2.3 h and an AUC(0-t) ([3]; 1000 mg/kg po, Lymph) of 118000 ± 16700 ng·h/mL. For the same molecule, the Cmax ([3]; 1000 mg/kg po, Lymph) was 35100 ± 5160 ng/mL, the AUC(0-t) ([3]; 1000 mg/kg po, Plasma) was 5800 ± 2810 ng·h/mL and the Cmax ([3]; 1000 mg/kg po, Plasma) was 1750 ± 710 ng/mL. The AUC(0-t) ([3]; 2000 mg/kg po, Lymph) was 389000 ± 125000 ng·h/mL, the Cmax ([3]; 2000 mg/kg po, Lymph) was 40100 ± 8620 ng/mL and the AUC(0-t) ([3]; 2000 mg/kg po, Plasma) was 9490 ± 3850 ng·h/mL. For the same molecule, the Cmax ([3]; 2000 mg/kg po, Plasma) was 2110 ± 750 ng/mL, the AUC(0-t) ([3]; 4000 mg/kg po, Lymph) was 431000 ± 81300 ng·h/mL and the Cmax ([3]; 4000 mg/kg po, Lymph) was 46600 ± 1730 ng/mL. The half-life ([3]; 4000 mg/kg po, Lymph) was 3.3 ± 0.2 h, the AUC(0-t) ([3]; 4000 mg/kg po, Plasma) was 71100 ± 31700 ng·h/mL and the Cmax ([3]; 4000 mg/kg po, Plasma) was 6760 ± 3330 ng/mL. The IC50 (OATP1B3) was greater than 0.032 mM.
